Test results published in PMC4813465, “Selective Inhibition of the Mitochondrial Permeability Transition Pore Protects against Neurodegeneration in Experimental Multiple Sclerosis” (The Journal of Biological Chemistry, 2015).

How the values were obtained:
[1] = biological target: Ca2+-mediated PT pore formation (Mus musculus, UniProt Q99KR7); settings: liver mitochondria
TRIM-CypA = TRIM-CypA (Homo sapiens, UniProt P62937+Q6PIZ9)
Description: Viral supernatant was collected 48 h post-transfection and stored at −80 °C.
To generate CRFK cells stably expressing N-terminally HA-tagged TRIM-CypA from an EXN-based vector, murine leukemia virus (MLV) vector was prepared as above, using pMDG, CMVi MLV gag-pol expression vector, and γ-retroviral expression vector encoding a fusion protein comprising human CypA downstream of owl monkey TRIM5 RBCC (EXN-TRIM-CypA) ([67]). CRFK cells, which are null for TRIM5α activity ([68]), were then transduced with vector, followed by selection of cells in 1 mg/ml G418 (Invitrogen).
Infectivity was measured by flow cytometry 48 h postinfection.

rat cortical neurons = assay: Mitochondrial membrane potential (TMRM) in rat cortical neurons; assay type: cell-based
Text: The minimum value after the addition of compound (prior to the addition of FCCP) was taken, and this was expressed as a percentage (using the baseline as 100% and FCCP as 0%) and then normalized to DMSO (100%).

[2] = system: splenocytes from MOG 35-55 immunized ABH mice; assay: Myelin antigen (MOG 35-55)-induced T cell proliferation; assay type: cell-based, mouse; settings: MOG residues 35–55, 5 μg/ml
Description: ABH mice were injected subcutaneously in the flank with 100 μg of myelin oligodendrocyte glycoprotein (MOG) peptide residues 35–55 (Cambridge Research Biochemicals Ltd., Billingham, UK) emulsified in Freund's adjuvant containing 200 μg of Mycobacterium tuberculosis H37Ra (Difco, Becton Dickinson, Oxford, UK) on days 0 and 7 ([69]). Spleens were collected and prepared and analyzed as above except that mitogens were replaced with 5 μg/ml MOG 35–55 peptide, and cells were incubated for 72 h before the addition of tritiated thymidine.

[3] = system: mitochondria of rat cortical neurons and isolated liver mitochondria; assay: Mitochondrial functional parameters (membrane potential, oxygen consumption, ATP production) in cultured rat neurons and isolated mitochondria; assay type: cell-based
Description: Oxygen consumption was measured using Oroboros Oxygraph-2K as described previously ([62]). Prior to the assay, the Oxygraph chambers were calibrated with Miro5 buffer (0.5 mM EGTA, 3 mM MgCl2·6H2O, 60 mM potassium lactobionate, 20 mM taurine, 10 mM KH2PO4, 20 mM HEPES, 110 mM sucrose, 1 g/liter BSA (essentially fatty acid-free)). Isolated mitochondria were suspended in Miro5 (at 100–200 μg/ml) and loaded into the chamber together with substrates (malate, 2 mM; glutamate, 10 mM), and the O2 flow signal was allowed to stabilize to the basal respiration rate (∼10 min). […] Data were analyzed by subtracting the antimycin A respiration rate to give mitochondrial specific O2 flow and were then expressed as a percentage of the basal O2 flow.
Rat cortical neurons, cultured for 8–9 days, were incubated for 40 min at 37 °C with the cell-permeant cationic dye tetramethylrhodamine methyl ester (25 nM), and fluorescence was measured using the ImageXpress Micro XL system (Molecular Devices). […] The minimum value after the addition of compound (prior to the addition of FCCP) was taken, and this was expressed as a percentage (using the baseline as 100% and FCCP as 0%) and then normalized to DMSO (100%).
Freshly isolated mouse liver mitochondria were suspended in MSK buffer containing 10 μg/ml rhodamine 123 (dequench mode), at a concentration of 500 μg/ml, and plated in an opaque black 96-well plate. […]

[4] = system: experimental autoimmune encephalomyelitis; assay: Relapsing-progressive EAE in ABH mice (neurological score, RotaRod, neurofilament ELISA); assay type: in vivo, mouse
Description: Mice were injected subcutaneously with 1 mg of freeze-dried mouse spinal cord homogenate (SCH) in Freund's adjuvant on days 0 and 7 as described previously ([71]). After the initial paralytic disease and subsequent remission, a relapse was induced by a further injection of SCH in Freund's incomplete adjuvant on day 28 to induce a relapse 7 days later ([71]). Studies were randomized, blinded, and powered as described previously ([71]). Neurological scores were graded as 0 = normal, 1 = limp tail, 2 = impaired righting reflex, 3 = hind limb paresis, 4 = complete hind limb paralysis, and 5 = moribund/death ([71]). Results are expressed as mean ± S.E. maximum or minimum neurological score and mean day of onset ± S.D. The clinical scores are presented as the mean daily neurological score ± S.E. Differences in clinical scores were assessed using non-parametric, Mann-Whitney U statistics ([71]). Motor control and coordination were assessed on an accelerating (4–40 rpm, accelerating at 6 rpm/25 s) RotaRod (ENV-575M, Med Associates Inc., St. Albans, VT) as described previously ([71]). This was performed 1 day before induction of relapse and at the termination of the experiment on day 45. RotaRod assessment was performed blinded to treatment. Animals were randomized to vehicle or treatment based on their RotaRod scores. Results are expressed as mean ± S.E. time that animals maintained rotarod activity. Differences in rota activity and quantitative neurofilament ELISA were assessed using Student's t test incorporating tests for equality of variance using Sigmaplot (Systat Software, Inc., San Jose, CA) ([71]).
At the end of the experiment, the spinal cord was removed, and an ELISA for heavy chain neurofilament on spinal cord was performed. Total nerve content of each spinal cord was estimated following calibration against neurofilament protein standards as described previously ([71], [72]).
Neurofilament level as a validated correlate of spinal cord axonal content as determined by histology was determined as follows. […] Tissues were snap-frozen and stored at −80 °C before homogenization. Tissues were homogenized in a glass homogenizer in 1 ml/100 mg of spinal cord tissue wet weight homogenization buffer (0.2 mM PMSF, 1 mM EDTA, 1 mM EGTA, 4 M urea, 10 mM Tris-HCl (Sigma), pH 7.2) plus 1:100 HALT protease inhibitor mixture (Thermo Fisher Scientific) and further homogenized by sonication twice for 10 s (Cole-Parmer Instruments, Vernon Hills, IL). Samples were spun down at 13,000 rpm in a bench top centrifuge (Eppendorf), and the supernatant was collected and stored at −80 °C before neurofilament determination. Samples were thawed on ice, and an ELISA for heavy chain neurofilament was performed. Briefly, a 96-well plate was coated overnight at 4 °C with capture antibody (1:5000; SMI35 anti-neurofilament H, Cambridge Bioscience, Cambridge, UK) in coating buffer (0.15 M Na2CO3, 0.35 M NaHCO3 (Sigma), pH 9.6). Following one wash in wash buffer (150 mM NaCl, 10 mM Tris-HCl, 0.1% Tween 20 (Sigma), pH 7.5), nonspecific binding was blocked by incubation with 5% bovine serum albumin (Sigma) in wash buffer for 1 h at room temperature. Following a wash step, samples and standards (porcine neurofilament heavy chain, Chemicon International) were diluted in wash buffer with 1% bovine serum albumin and incubated on the plate for 1 h at room temperature. Following five wash steps, the detector antibody was applied (1:1000 rabbit anti-NF200, Sigma) and incubated for a further 1 h at room temperature. The plate was washed five times, and the reporter antibody was applied (1:1000 swine anti-rabbit HRP conjugate, DAKO). Following a final five washes, tetramethylbenzidine substrate (Sigma) was applied, and color production was measured on a BioTek Synergy HT plate reader at 450 nm.

[5] = system: T cell proliferative response in draining auricular lymph node; assay: In vivo T cell proliferation, oxazolone contact hypersensitivity; parameters: species or system mouse
Description: The contact sensitizer 4-ethoxymethylene-2-phenyl-2-oxazolin-5-one (oxazolone; Sigma) was dissolved (25 mg/ml) in 4:1 acetone/olive oil. Mice (n = 3/group) received epicutaneous application of either 25 μl of 2.5% oxazolone or acetone/olive oil on the dorsum of the ear on day 0 ([70]). The draining auricular lymph nodes were removed 3 days later, and the induced proliferative response was assessed as described previously. Briefly, 5 × 10^5 cells/well were cultured in RPMI 1640 medium with glutamate (Gibco®, Invitrogen Ltd., Paisley UK), supplemented with 0.5 mM sodium, in round-bottomed 96-well plates overnight at 37 °C in a humidified atmosphere of 5% CO2 in the presence of 1 μCi of [^3H]thymidine (PerkinElmer Life Sciences) per well. DNA synthesis was estimated using β-scintillation counting as above. […] Results are expressed as mean ± S.E. thymidine incorporation counts/min.

K133I CypD = K133I CypD (Homo sapiens, UniProt P30405, K175I); assay: Fluorescence polarization cyclophilin binding assay, CypD; settings: probe 45 nM, enzyme 40 nM
Chain of K133I CypD (P30405 43-207 K175I): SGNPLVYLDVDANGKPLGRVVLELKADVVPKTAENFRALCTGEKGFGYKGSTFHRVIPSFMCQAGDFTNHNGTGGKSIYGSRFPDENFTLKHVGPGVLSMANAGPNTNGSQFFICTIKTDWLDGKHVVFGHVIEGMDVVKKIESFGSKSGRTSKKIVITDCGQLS
Description: (§1) Titration of a single probe concentration against different enzyme concentrations was used to determine the dissociation constant (Kd). From this we also determined the enzyme concentration that would give a high enough polarization signal to measure binding affinities.
(§2) At least three replicates were used for each experiment. The percentage of DMSO in the total solution should remain lower than 1%. […] Measurements were taken after gain adjustment of control sample and 30-min incubation with a xenon flash light with filter settings for 485-nm excitation and 520-nm emission.

CypA = CypA (Homo sapiens, UniProt P62937); assay: Fluorescence polarization cyclophilin binding assay, CypA; settings: probe 45 nM, enzyme 40 nM
Chain of CypA (P62937 whole entry, species assumed): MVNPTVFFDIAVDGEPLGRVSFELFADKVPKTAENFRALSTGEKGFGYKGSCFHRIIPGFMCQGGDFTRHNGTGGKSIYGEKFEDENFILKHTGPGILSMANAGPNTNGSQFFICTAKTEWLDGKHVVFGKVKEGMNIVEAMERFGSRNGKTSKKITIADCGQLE
Description: Fluorescence polarization (FP) is inversely related to the molecular rotation of the fluorophore. Fluorophores linked to small molecules tumble faster and emit less polarized fluorescence than fluorophore-small molecules bound to proteins. FP is a convenient technique to measure affinity of ligands to cyclophilins ([59], [60]).
as §1, §2

[6] = before treatment (baseline of the JW47 group)

Chain of TRIM-CypA (P62937 2-165, one chain of several): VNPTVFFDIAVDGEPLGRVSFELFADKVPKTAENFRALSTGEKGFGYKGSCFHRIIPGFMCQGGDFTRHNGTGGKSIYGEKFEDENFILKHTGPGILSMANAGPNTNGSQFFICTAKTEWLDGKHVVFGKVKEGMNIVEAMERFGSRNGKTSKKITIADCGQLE
Chain of Ca2+-mediated PT pore formation (Q99KR7 30-206): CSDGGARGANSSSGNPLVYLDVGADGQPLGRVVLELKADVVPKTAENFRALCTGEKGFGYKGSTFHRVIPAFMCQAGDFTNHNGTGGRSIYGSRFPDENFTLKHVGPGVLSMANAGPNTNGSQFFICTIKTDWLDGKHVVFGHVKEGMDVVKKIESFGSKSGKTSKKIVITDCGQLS

Q: Which results are given for `CC[C@@H]1NC(=O)[C@H]([C@H](O)[C@H](C)C/C=C/CCC[n+]2cccc3ccccc32)N(C)C(=O)[C@H](C(C)C)N(C)C(=O)[C@H](CC(C)C)N(C)C(=O)[C@H](CC(C)C)N(C)C(=O)[C@@H](C)NC(=O)[C@H](C)NC(=O)[C@H](CC(C)C)N(C)C(=O)[C@H](C(C)C)NC(=O)[C@H](CC(C)C)N(C)C(=O)CN(C)C1=O` [JW47, [Gly-(1S,2R,E)-8-quinolinium-1-hydroxy-2-methyloct-4-ene]^1 CsA]?
A: effect on CRC, mitochondria from WT mice [1]: significantly increased; rescue of HIV-1 infectivity in TRIM-CypA cells (TRIM-CypA): no activity; effect on mitochondria in cortical neurons (rat cortical neurons; 40 nM): not affected; effect on mitochondria in cortical neurons (rat cortical neurons; 1 μM): significantly depolarized; concentration that inhibited neuronal mitochondrial membrane potential (rat cortical neurons; rat cortical neurons): 1000 nM; immunosuppressive activity in antigen-driven proliferation assay [2]: markedly less immunosuppressive activity compared with CsA; concentration up to which mitochondrial membrane potential, oxygen consumption and ATP production were not affected [3]: up to 200 nM; incidence of disease (relapse) ([4]; 1 mg/kg intraperitoneally daily from day 33): 14 of 14; onset of induced relapse ([4]; 1 mg/kg intraperitoneally daily, SCH injection day 28, mean ± S.D.): 34.5 ± 0.7 days; rotorod activity during the second remission after relapse ([4]; 1 mg/kg intraperitoneally daily, day 45): 135.0 ± 42.9 s; minimal neurological score during the second remission ([4]; 1 mg/kg intraperitoneally daily, p < 0.001 vs vehicle): 1.4 ± 0.3; maximal severity disease score ([4]; 1 mg/kg intraperitoneally daily, score 0–5, mean ± S.E.): 3.9 ± 0.1; loss of nerves and axons within the spinal cord, neurofilament ELISA ([4]; 1 mg/kg intraperitoneally daily, vs vehicle): lost significantly (p < 0.01) fewer nerves; minimal clinical score during the first remission [4, 6]: 0.6 ± 0.1; rotorod activity on day 27 during the first remission [4, 6]: 168.8 ± 21.8 s; effect on T cell response, contact hypersensitivity model ([5]; 0.1 mg/kg intraperitoneally daily): no effect; effect on T cell response, contact hypersensitivity model ([5]; 1 mg/kg intraperitoneally daily): no effect; effect on T cell response, contact hypersensitivity model ([5]; 10 mg/kg intraperitoneally daily): inhibited the T cell response

Q: `C/C=C/C[C@@H](C)[C@@H](O)[C@H]1C(=O)N[C@@H](CC)C(=O)N(C)[C@H](Cc2ccc(C(=O)O)cc2)C(=O)N(C)[C@@H](CC(C)C)C(=O)N[C@@H](C(C)C)C(=O)N(C)[C@@H](CC(C)C)C(=O)N[C@@H](C)C(=O)N[C@H](C)C(=O)N(C)[C@@H](CC(C)C)C(=O)N(C)[C@@H](CC(C)C)C(=O)N(C)[C@@H](C(C)C)C(=O)N1C` [SmBzCsA] was tested. Which Ki (K133I CypD) did it give?
A: 202 ± 14.1 nM

Q: What about the Ki (CypA) of the same compound?
A: 236 ± 8.4 nM
